# From PubChem BioAssay AID1919004 (Molecular Pharmacology Branch, DTP, NCI, 2023)
# System: 883617-216-R-J1-PDC complex spheroids, growth, % test/control
# Test: Anticancer human tumor 883617-216-R-J1-PDC patient-derived bladder carcinoma cell line growth inhibition [AhR]
# Details: for IC50: curve of first compound; for viability, T/C: stronger effect = lower value
# Source text: Multicellular complex tumor spheroid response to aryl hydrocarbon receptor antagonists in combination with a variety of drugs and investigational agents in selected tumor cell lines
# The current study was undertaken to assess response to aryl hydrocarbon receptor antagonists in combination with standard-of-care drugs and investigational agents in solid tumor complex spheroid models. Complex spheroids include a stromal component modeled by human endothelial cells (HUVEC) and fibroblasts modeled by human mesenchymal stem cells (MSCs). The concentration ranges selected for each drug and investigational agent were based upon clinically achievable concentrations if the clinical Cmax of the agent was known.
# Compounds. The drugs and investigational agents: BAY 2416964 (NSC825713), GNF351 (NSC835774), CH-223191 (NSC835775), CPI-455 (NSC825282), aza-TdCyd (NSC777586), decitabine (NSC127716), belinostat (NSC758774), entinostat (NSC756642), pevonedistat (NSC761192), tazemetostat (NSC777109), talazoparib (NSC765396), olaparib (NSC753686), selinexor (NSC780203), nedisertib (M3814, NSC802822), bortezomib (NSC756655), venetoclax (NSC766270), doxorubicin (NSC123127), elimusertib (BAY189344, NSC800525), ceralasertib (AZD6738, NSC777638), TAK-243 (NSC785004), alisertib (NSC759677), etoposide (NSC141540), topotecan (NSC609699), eribulin (NSC707389), gemcitabine (NSC613327), carboplatin (NSC241240), cisplatin (NSC119875), and SN-38 (NSC673596) were obtained from the National Cancer Institute (NCI) Developmental Therapeutics Program Chemical Repository (32). The FDA-approved anticancer drug set is available from the Developmental Therapeutics Program at https://dtp.cancer.gov/organization/dscb/obtaining/available plates.htm. […] The stock solutions were prepared in dimethyl sulfoxide (DMSO, Sigma-Aldrich, St. Louis, MO, cat. D2650), except for the platinum compounds which were prepared in saline (Quality Biological, Gaithersburg, MD, cat. 114-055-101), at 800-fold the tested concentration and stored at -70 degrees C prior to their use. All drugs and investigational agents were tested over a range starting from a high concentration at or near the clinical Cmax and decreasing in half-log increments. If the clinical Cmax for an agent had not been determined, the highest concentration tested was 10 microM (Table 1).
# Cell Culture. All cells were maintained in an incubator at 37 degrees C and 5% CO2 with 95% humidity. The PDC lines were cultured according to standard operating procedures established by the NCI PDMR (https://pdmr.cancer.gov). Briefly, all PDCs were thawed and cultured in Matrigel-coated flasks prepared with a working solution of 1X Ham's F-12 nutrient mix, without supplementation (Invitrogen, Waltham, MA, cat. 11765054), 100 U/mL penicillin-streptomycin (Invitrogen, cat. 15140122), and 2.5% Matrigel (Corning Inc., Corning, NY, cat. 354248) for the first three passages. All PDCs were cultured in complete DMEM/F-12 media containing advanced DMEM/F-12 (Invitrogen, cat. 12634028), 4.9% defined fetal bovine serum, heat inactivated (HyClone Laboratories Inc., Logan, UT, cat. SH30070.03HI), 389 ng/mL hydrocortisone (Sigma-Aldrich, cat. H4001), 9.7 ng/mL human EGF recombinant protein (Invitrogen, cat. PHG0313), 23.4 microg/mL adenine (Sigma-Aldrich, cat. A2786), 97.3 U/mL penicillin-streptomycin (Invitrogen, cat. 15140122), 1.9 mM L-glutamine (Invitrogen, cat. 25030081), and 9.7 microM Y-27632 dihydrochloride (Tocris Bioscience, Bristol, United Kingdom, cat. 1254). The PDCs were cultured in complete DMEM/F12 media without 10 microM Y-27632 dihydrochloride for at least two passages prior to the screen. The established cell lines NCI-H1341 and […] were cultured in DMEM/F-12, HEPES (Invitrogen, cat. 11330032), 5% defined fetal bovine serum (HyClone Laboratories Inc., cat. SH30070.03), ITS premix universal culture supplement [insulin (5 microg/mL), transferrin (5 microg/mL), and selenious acid (5 ng/mL)] […]
# [1] = second compound 0.1 µM, first compound 0.0316 µM
# [2] = second compound 0.1 µM, first compound 0.1 µM
# [3] = second compound 0.1 µM, first compound 0.316 µM
# [4] = second compound 0.1 µM, first compound 1 µM
# [5] = second compound 0.316 µM, first compound 0.0316 µM
# [6] = second compound 0.316 µM, first compound 0.1 µM
# [7] = second compound 0.316 µM, first compound 0.316 µM
# [8] = second compound 0.316 µM, first compound 1 µM
# [9] = second compound 1 µM, first compound 0.0316 µM
# [10] = second compound 1 µM, first compound 0.1 µM
# [11] = second compound 1 µM, first compound 0.316 µM
# [12] = second compound 1 µM, first compound 1 µM
# [13] = second compound 3.16 µM, first compound 0.0316 µM
# [14] = second compound 3.16 µM, first compound 0.1 µM
# [15] = second compound 3.16 µM, first compound 0.316 µM
# [16] = second compound 3.16 µM, first compound 1 µM
# [17] = second compound 10 µM, first compound 0.0316 µM
# [18] = second compound 10 µM, first compound 0.1 µM
# [19] = second compound 10 µM, first compound 0.316 µM
# [20] = second compound 10 µM, first compound 1 µM
# [21] = second compound 0.1 µM, first compound 3.16 µM
# [22] = second compound 0.1 µM, first compound 10 µM
# [23] = second compound 0.316 µM, first compound 3.16 µM
# [24] = second compound 0.316 µM, first compound 10 µM
# [25] = second compound 1 µM, first compound 3.16 µM
# [26] = second compound 1 µM, first compound 10 µM
# [27] = second compound 3.16 µM, first compound 3.16 µM
# [28] = second compound 3.16 µM, first compound 10 µM
# [29] = second compound 10 µM, first compound 3.16 µM
# [30] = second compound 10 µM, first compound 10 µM
# 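Note: exposure lasted 7 days after dosing on day 3 of spheroid growth.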
SMILES,IC50 (second compound 0.1 µM) [µM],IC50 (second compound 0.316 µM) [µM],IC50 (second compound 1 µM) [µM],IC50 (second compound 3.16 µM) [µM],IC50 (second compound 10 µM) [µM],"viability, T/C [1] [%]","viability, T/C [2] [%]","viability, T/C [3] [%]","viability, T/C [4] [%]","viability, T/C [5] [%]","viability, T/C [6] [%]","viability, T/C [7] [%]","viability, T/C [8] [%]","viability, T/C [9] [%]","viability, T/C [10] [%]","viability, T/C [11] [%]","viability, T/C [12] [%]","viability, T/C [13] [%]","viability, T/C [14] [%]","viability, T/C [15] [%]",further results
CC1COCCN1c1cc(-c2ccnn2C)c2ccnc(-c3ccn[nH]3)c2n1 (stereo not given) + Cc1cncc(-c2nc(NCCc3c[nH]c4ccccc34)c3ncn(C(C)C)c3n2)c1,> 1,> 1,> 1,> 1,< 0.00316,83.7,76.5,61.5,53.9,98.5,77.3,60.2,54.5,95.9,76,70.3,60.5,117,87.6,72.7,"viability, T/C (second compound 0.1 µM, first compound 0.00316 µM): 94.9%; viability, T/C (second compound 0.1 µM, first compound 0.01 µM): 92.8%; viability, T/C (second compound 0.316 µM, first compound 0.00316 µM): 101%; viability, T/C (second compound 0.316 µM, first compound 0.01 µM): 103%; viability, T/C (second compound 1 µM, first compound 0.00316 µM): 96.1%; viability, T/C (second compound 1 µM, first compound 0.01 µM): 107%; viability, T/C (second compound 3.16 µM, first compound 0.00316 µM): 115%; viability, T/C (second compound 3.16 µM, first compound 0.01 µM): 113%; viability, T/C [16]: 55.9%; viability, T/C (second compound 10 µM, first compound 0.00316 µM): 45.3%; viability, T/C (second compound 10 µM, first compound 0.01 µM): 50.8%; viability, T/C [17]: 51.5%; viability, T/C [18]: 39.8%; viability, T/C [19]: 30.9%; viability, T/C [20]: 27.4%"
COc1cc(Nc2ncc3c(n2)-c2ccc(Cl)cc2C(c2c(F)cccc2OC)=NC3)ccc1C(=O)O + Cc1ccccc1N=Nc1ccc(NC(=O)c2ccnn2C)c(C)c1,> 10,> 10,> 10,> 10,> 10,83.3,78.7,74.5,63.2,72.7,83.1,64.6,62.6,73.9,73.7,67.2,72,67.4,76.3,69.6,"viability, T/C [21]: 71.1%; viability, T/C [22]: 63.6%; viability, T/C [23]: 66.3%; viability, T/C [24]: 63.2%; viability, T/C [25]: 63.7%; viability, T/C [26]: 53.7%; viability, T/C [16]: 62.1%; viability, T/C [27]: 67%; viability, T/C [28]: 56.4%; viability, T/C [17]: 68.9%; viability, T/C [18]: 67.7%; viability, T/C [19]: 67.8%; viability, T/C [20]: 61.3%; viability, T/C [29]: 58.7%; viability, T/C [30]: 50.8%"
NS(=O)(=O)OCC1CC(n2ccc3c(NC4CCc5ccccc54)ncnc32)CC1O (stereo not given) + CC(CO)NC(=O)c1cc(-c2ccc(Cl)cc2)nn(-c2cnn(C)c2)c1=O,0.788,1.5,1.91,10,1.17,96.4,90.6,87.1,40.6,55,94,63.4,61.5,64.6,55.6,109,67.6,75.8,108,55.6,"viability, T/C [21]: 21%; viability, T/C [22]: 27.2%; viability, T/C [23]: 28.2%; viability, T/C [24]: 29.2%; viability, T/C [25]: 30.7%; viability, T/C [26]: 42%; viability, T/C [16]: 65.9%; viability, T/C [27]: 27%; viability, T/C [28]: 72.7%; viability, T/C [17]: 72.3%; viability, T/C [18]: 109%; viability, T/C [19]: 80.1%; viability, T/C [20]: 51.1%; viability, T/C [29]: 32.4%; viability, T/C [30]: 16.4%"
COc1cc(C2c3cc4c(cc3C(OC3OC5COC(C)OC5C(O)C3O)C3COC(=O)C23)OCO4)cc(OC)c1O (stereo not given) + CC(CO)NC(=O)c1cc(-c2ccc(Cl)cc2)nn(-c2cnn(C)c2)c1=O,> 10,> 10,> 10,> 10,> 10,75.2,90.2,108,66.3,63.8,84.5,85.3,67.7,60.3,76.7,90,83.5,81.1,85.8,74.3,"viability, T/C [21]: 84.1%; viability, T/C [22]: 60.1%; viability, T/C [23]: 101%; viability, T/C [24]: 69.4%; viability, T/C [25]: 84.3%; viability, T/C [26]: 53.3%; viability, T/C [16]: 69.3%; viability, T/C [27]: 65%; viability, T/C [28]: 102%; viability, T/C [17]: 91.7%; viability, T/C [18]: 70.8%; viability, T/C [19]: 89.6%; viability, T/C [20]: 81.3%; viability, T/C [29]: 53.5%; viability, T/C [30]: 77.3%"
